The text below walks through data of patent US5624923A, “Tricyclic diazepine vasopressin antagonists and oxytocin antagonists” (priority 1995, dated 1997).

In assay [1] the test system is Vasopressin V2. Kind of assay: Vasopressin V2 Antagonist Activity in Conscious Hydrated Rats. It counts as in vivo, rat. To be noted: AVP 0.4 μg/kg i.p. The method, then: Vasopressin V2 Antagonist Activity in Conscious Hydrated Rats
Conscious hydrated rats are treated with compounds under study from 0.1 to 100 mg/kg orally or vehicle. Two to four rats are used for each compound. One hour later, arginine vasopressin (AVP, antidiuretic hormore, ADH) dissolved in peanut oil is administered at 0.4 μg/kg intraperitoneally. Two rats in each test would not receive arginine vasopressin but only the vehicle (peanut oil) to serve as water-loading control. Twenty minutes later each rat is given 30 mL/kg of deionized water orally by gavage and is placed individually in a metabolic cage equipped with a funnel and a graduated glass cylinder to collect urine for four hours. Urine volume is measured and osmolality analyzed by use of a Fiske One-Ten osmometer (Fiske Assoc., Norwood, Mass., USA). Urinary sodium, potassium, and chloride are analyzed by use of ion-specific electrodes in a Beckman E3 (Electrolyte 3) Analyzer.

The target of assay [2] is T1, Rat Kidney Medullary V2 Receptors (Rattus norvegicus, UniProt Q00788).
T1 construct: Medullary tissues from rat kidneys are dissected out; from tissue; host or cells: rat kidney medulla membranes
Kind of assay: Binding Assay to Rat Kidney Medullary V2 Receptors. To be noted: for IC50: rat kidney medulla membranes, read-out: V2 IC50. A digest of the protocol: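 IC50 derived from competition curves; bound tritium counted by liquid scintillation after filtration. Rat medullary kidney membranes (Tris-HCl pH 7.4, BSA, PMSF) were incubated 120 min to equilibrium with radioligand and test compound (added in 50% DMSO). Nonspecific binding: 1.0 μM unlabeled ligand.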

Assay [3] deals with T2, Rat Hepatic V1 Receptors (Rattus norvegicus, UniProt P30560).
T2 construct: Rat liver plasma membranes expressing the vasopressin V1 receptor subtypes; from tissue; host or cells: rat liver plasma membranes
Kind of assay: Binding Assay to Rat Hepatic V1 Receptors. To be noted: for IC50: rat liver membranes, read-out: V1 IC50.

In assay [4] the test system is Vasopressin V1. As to the kind of experiment: Vasopressin V1 Antagonist Activity in Conscious Rats (vasopressin vasopressor response). It counts as in vivo, rat. Also on record: Average Change: unit not given here. To be noted: for % Inhibition / Average Change: 10 mg/kg i.v., SHR; for Max. % Inhibition / Time (of max. % inhibition): 30 mg/kg i.v. In outline: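 Conscious rats are restrained supine, and under local 2% procaine a PE 10/20 cannula is passed through the ventral caudal tail artery into the lower abdominal aorta. The caudal vein is cannulated for intravenous dosing. Blood pressure is recorded with a Statham P23Db transducer, and vasopressin injections are repeated after compound dosing. Percent antagonism is calculated against the pre-drug vasopressor response taken as 100%.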

T2 sequence (P30560 whole entry): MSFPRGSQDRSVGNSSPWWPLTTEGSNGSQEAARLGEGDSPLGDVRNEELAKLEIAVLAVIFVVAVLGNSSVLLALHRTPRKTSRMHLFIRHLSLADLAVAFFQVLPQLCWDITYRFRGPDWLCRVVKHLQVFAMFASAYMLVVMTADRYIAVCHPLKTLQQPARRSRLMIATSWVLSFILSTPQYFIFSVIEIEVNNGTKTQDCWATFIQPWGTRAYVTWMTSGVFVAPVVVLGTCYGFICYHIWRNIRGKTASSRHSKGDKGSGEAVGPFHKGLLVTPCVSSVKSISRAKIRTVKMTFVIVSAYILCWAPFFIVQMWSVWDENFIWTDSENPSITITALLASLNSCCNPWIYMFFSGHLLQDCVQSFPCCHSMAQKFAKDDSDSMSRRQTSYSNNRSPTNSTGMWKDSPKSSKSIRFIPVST
T1 sequence (Q00788 whole entry): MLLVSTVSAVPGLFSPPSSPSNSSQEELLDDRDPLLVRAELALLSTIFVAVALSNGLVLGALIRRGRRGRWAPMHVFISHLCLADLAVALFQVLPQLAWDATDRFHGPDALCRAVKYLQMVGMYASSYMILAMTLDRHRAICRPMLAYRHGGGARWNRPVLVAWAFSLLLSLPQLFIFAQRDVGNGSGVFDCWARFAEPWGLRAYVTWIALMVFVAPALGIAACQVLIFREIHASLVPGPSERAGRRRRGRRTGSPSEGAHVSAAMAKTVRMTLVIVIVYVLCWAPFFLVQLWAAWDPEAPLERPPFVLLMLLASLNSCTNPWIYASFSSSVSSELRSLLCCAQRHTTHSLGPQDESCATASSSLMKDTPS

In assay [1] (30 mg/kg orally), `O=C(Nc1ccc(C(=O)N2Cc3cccn3Cc3ccccc32)cc1)c1cccc(F)c1F` [Example 1] yielded an Osmolality of 1504 mOsm/kg. For the same molecule, the “Urine Volume” value in assay [1] (30 mg/kg orally) is 1.1 ml/4 hrs. In addition, the concentration for half-maximal inhibition (IC50) came to 29 nM in assay [2] and 97 nM in assay [3]. Moreover, the “% Inhibition” value stood at 88% in assay [4] (VAS 0.01 i.u./kg, 30 min); 51% in assay [4] (VAS 0.01 i.u./kg, 60 min); 37% in assay [4] (VAS 0.01 i.u./kg, 90 min); 33% in assay [4] (VAS 0.01 i.u./kg, 120 min); 13% in assay [4] (VAS 0.01 i.u./kg, 180 min); 19% in assay [4] (VAS 0.01 i.u./kg, 240 min). In addition, the “% Inhibition” value turned out to be 4% in assay [4] (VAS 0.01 i.u./kg, 300 min); 85% in assay [4] (VAS 0.02 i.u./kg, 30 min); 62% in assay [4] (VAS 0.02 i.u./kg, 60 min); 49% in assay [4] (VAS 0.02 i.u./kg, 90 min); 29% in assay [4] (VAS 0.02 i.u./kg, 120 min); 9% in assay [4] (VAS 0.02 i.u./kg, 180 min). In addition, the “% Inhibition” value in assay [4] (VAS 0.02 i.u./kg, 240 min) turned out to be 25%; in assay [4] (VAS 0.02 i.u./kg, 300 min), 25%. Further, the “Average Change” value in assay [4] (VAS 0.01 i.u./kg, 30 min) was determined as 4; in assay [4] (VAS 0.01 i.u./kg, 60 min), 16.5; in assay [4] (VAS 0.01 i.u./kg, 90 min), 21; in assay [4] (VAS 0.01 i.u./kg, 120 min), 22.5; in assay [4] (VAS 0.01 i.u./kg, 180 min) it was 29; in assay [4] (VAS 0.01 i.u./kg, 240 min), 27. The “Average Change” value worked out at 32 in assay [4] (VAS 0.01 i.u./kg, 300 min); 8 in assay [4] (VAS 0.02 i.u./kg, 30 min); 20 in assay [4] (VAS 0.02 i.u./kg, 60 min); 27 in assay [4] (VAS 0.02 i.u./kg, 90 min); 37.5 in assay [4] (VAS 0.02 i.u./kg, 120 min); 48 in assay [4] (VAS 0.02 i.u./kg, 180 min). Also, the “Average Change” value in assay [4] (VAS 0.02 i.u./kg, 240 min) is reported as 39.5; in assay [4] (VAS 0.02 i.u./kg, 300 min), 39.5.

As to `O=C(Nc1ccc(C(=O)N2Cc3cccn3Cc3ccccc32)cc1)C1CC=CCC1` (stereo not drawn) [Example 354, N-[4-(5H-Pyrrolo[2,1-c][1,4]benzodiazepin-10(11)-ylcarbonyl)phenyl]-3-cyclohexenecarboxamide], in assay [1] (10 mg/kg orally), the Osmolality stood at 1010 mOsm/kg and the “Urine Volume” value was 8.8 ml/4 hrs. For the same molecule, in assay [2], the IC50 stood at 7 nM. Further, in assay [3], the concentration for half-maximal inhibition (IC50) amounted to 12 nM.

As for `O=C(CC1CCCCC1)Nc1ccc(C(=O)N2Cc3cccn3Cc3ccccc32)cc1` [Example 356, N-[4-(5H-Pyrrolo[2,1-c][1,4]benzodiazepin-10(11)ylcarbonyl)phenyl]-cyclohexylacetamide], in assay [1] (10 mg/kg orally), the Osmolality stood at 1023 mOsm/kg and the “Urine Volume” value was 5.8 ml/4 hrs. For the same molecule, in assay [2], the IC50 stood at 53 nM. In addition, the IC50 in assay [3] was determined as 87 nM.

On to `O=C(Cc1ccccc1F)Nc1ccc(C(=O)N2Cc3cccn3Cc3ccccc32)cc1` [Example 357, N-[4-(5H-Pyrrolo[2,1-c][1,4]benzodiazepin-10(11)ylcarbonyl)phenyl]-2-fluorobenzeneacetamide], for which the IC50 in assay [2] was found to be 17 nM; in assay [3], 19 nM. For the same molecule, the “% Inhibition” value was 60% in assay [4] (VAS 0.01 i.u./kg, 30 min); 89% in assay [4] (VAS 0.01 i.u./kg, 60 min); 80% in assay [4] (VAS 0.01 i.u./kg, 90 min); 80% in assay [4] (VAS 0.01 i.u./kg, 120 min); 77% in assay [4] (VAS 0.01 i.u./kg, 180 min); 66% in assay [4] (VAS 0.01 i.u./kg, 240 min). The “% Inhibition” value is reported as 61% in assay [4] (VAS 0.01 i.u./kg, 300 min); 68% in assay [4] (VAS 0.02 i.u./kg, 30 min); 79% in assay [4] (VAS 0.02 i.u./kg, 60 min); 79% in assay [4] (VAS 0.02 i.u./kg, 90 min); 88% in assay [4] (VAS 0.02 i.u./kg, 120 min); 78% in assay [4] (VAS 0.02 i.u./kg, 180 min). Besides, the “% Inhibition” value in assay [4] (VAS 0.02 i.u./kg, 240 min) was 71%; in assay [4] (VAS 0.02 i.u./kg, 300 min), 68%. The “Average Change” value turned out to be 16.5 in assay [4] (VAS 0.01 i.u./kg, 30 min); 4.5 in assay [4] (VAS 0.01 i.u./kg, 60 min); 8 in assay [4] (VAS 0.01 i.u./kg, 90 min); 8 in assay [4] (VAS 0.01 i.u./kg, 120 min); 9.5 in assay [4] (VAS 0.01 i.u./kg, 180 min); 14 in assay [4] (VAS 0.01 i.u./kg, 240 min). Moreover, the “Average Change” value in assay [4] (VAS 0.01 i.u./kg, 300 min) is 16; in assay [4] (VAS 0.02 i.u./kg, 30 min), 16; in assay [4] (VAS 0.02 i.u./kg, 60 min), 10.5; in assay [4] (VAS 0.02 i.u./kg, 90 min), 10.5; in assay [4] (VAS 0.02 i.u./kg, 120 min), 6; in assay [4] (VAS 0.02 i.u./kg, 180 min), 11. Besides, the “Average Change” value is recorded as 14.5 in assay [4] (VAS 0.02 i.u./kg, 240 min) and 16 in assay [4] (VAS 0.02 i.u./kg, 300 min).

As to `Cc1ccccc1C(=O)N(C)c1ccc(C(=O)N2Cc3cccn3Cc3ccccc32)cc1` [Example 384, N-[4-(5H-Pyrrolo[2,1-c][1,4]benzodiazepin-10(11H)-ylcarbonyl)phenyl]-N-methyl-2-methylbenzamide], the IC50 in assay [2] amounted to 59 nM; in assay [3] it was 188 nM. Further, the “% Inhibition” value amounted to 62% in assay [4] (VAS 0.01 i.u./kg, 30 min); 62% in assay [4] (VAS 0.01 i.u./kg, 60 min); 49% in assay [4] (VAS 0.01 i.u./kg, 90 min); 55% in assay [4] (VAS 0.01 i.u./kg, 120 min); 53% in assay [4] (VAS 0.01 i.u./kg, 180 min); 53% in assay [4] (VAS 0.01 i.u./kg, 240 min). Also, the “% Inhibition” value in assay [4] (VAS 0.01 i.u./kg, 300 min) is listed as 49%; in assay [4] (VAS 0.02 i.u./kg, 30 min), 61%; in assay [4] (VAS 0.02 i.u./kg, 60 min), 72%; in assay [4] (VAS 0.02 i.u./kg, 90 min), 58%; in assay [4] (VAS 0.02 i.u./kg, 120 min), 69%; in assay [4] (VAS 0.02 i.u./kg, 180 min) it was 64%. In addition, the “% Inhibition” value in assay [4] (VAS 0.02 i.u./kg, 240 min) amounted to 59%; in assay [4] (VAS 0.02 i.u./kg, 300 min), 54%. Moreover, the “Average Change” value stood at 9 in assay [4] (VAS 0.01 i.u./kg, 30 min); 9 in assay [4] (VAS 0.01 i.u./kg, 60 min); 12 in assay [4] (VAS 0.01 i.u./kg, 90 min); 10.5 in assay [4] (VAS 0.01 i.u./kg, 120 min); 11 in assay [4] (VAS 0.01 i.u./kg, 180 min); 11 in assay [4] (VAS 0.01 i.u./kg, 240 min). Further, the “Average Change” value in assay [4] (VAS 0.01 i.u./kg, 300 min) is on record as 12; in assay [4] (VAS 0.02 i.u./kg, 30 min), 14.5; in assay [4] (VAS 0.02 i.u./kg, 60 min), 10.5; in assay [4] (VAS 0.02 i.u./kg, 90 min), 15.5; in assay [4] (VAS 0.02 i.u./kg, 120 min), 11.5; in assay [4] (VAS 0.02 i.u./kg, 180 min) it was 13.5. Moreover, the “Average Change” value in assay [4] (VAS 0.02 i.u./kg, 240 min) amounted to 15; in assay [4] (VAS 0.02 i.u./kg, 300 min), 17.

In the case of `O=C(c1ccc(NS(=O)(=O)c2ccccc2Cl)cc1)N1Cc2cccn2Cc2ccccc21` [Example 488, 10-[4-[[(2-Chlorophenyl)sulfonyl]amino]benzoyl]-10,11-dihydro-5H-pyrrolo[2,1-c][1,4]benzodiazepine], the inhibition at 10 µM in assay [2] (10 μM, rat) amounted to 87%; in assay [3] (2 h, 10 μM, rat) it was 96%. Further, in assay [4], the “Max. % Inhibition” value is reported as 43%. In addition, the “Time (of max. % inhibition)” value in assay [4] was determined as 60 min.

With `O=C(Nc1ccc(C(=O)N2Cc3cccn3Cc3ccccc32)cc1)C1CCCO1` (stereo not drawn) [Example 600, N-[4-(5H-Pyrrolo[2,1-c][1,4]benzodiazepin-10(11H)-ylcarbonyl)phenyl]tetrahydrofurane-2-carboxamide], the IC50 in assay [2] was found to be 740 nM. In addition, in assay [3], the IC50 turned out to be 420 nM. In assay [4], the “Max. % Inhibition” value turned out to be 78% and the “Time (of max. % inhibition)” value is 60 min.

As usually defined, the IC50 is the point on the concentration scale where inhibition reaches its midpoint. The term % Inhibition denotes the drop in the measured response relative to a control, in per cent. The term inhibition denotes the change of the read-out against control, counted positive when it falls.
